Assays:
[1] = test system: tumor; assay: Toxicity of 5-FU and tumor weight in tumor-bearing CD8FI female mice (Table 2)
[2] = as above; conditions: mouse, in vivo, iv
[3] = Toxicity of 5-FU 130 mg/kg/wk in CD8FI female mice with breast tumors (FIG. 1); assay type: in vivo, mouse; conditions: mouse, in vivo, iv; 5-FU 130 mg/kg/wk i.v. × 3 weeks
Procedure: (§1) FIG. 1 is a plot showing the toxicity of 5-fluorouracil. Toxicity in the plot is measured as a function of the percent of body weight change over time.
(§2) FIG. 1 establishes that 5-FU administered by i.v. in doses of 130 mg/kg/wk to mice is a toxic dose. Toxicity is determined by a change in body weight. Ten CD8FI female mice with breast tumors were treated with weekly doses of 5-fluorouracil in amounts of 130 mg/kg for three weeks. The percent of body weight change of the mice is shown and plotted over a period of approximately 12 days after administration of the last dose. The mice receiving 130 mg/kg of 5-FU suffered a weight loss of approximately 25% and a mortality of 30%.

[4] = test system: breast tumors; assay: as above; assay type: in vivo, mouse
Procedure: as §1, §2

[5] = test system: tumor; assay: 5-FU and oral BAU in tumor-bearing CD8FI mice (Table 5); conditions: 5-FU 150 mg/kg/wk
[6] = Toxic dose of weekly 5-FU and severity of myelosuppression in patients (Table 1); assay type: in vivo, human; conditions: for Toxic dose: weekly i.v. 5-FU
Procedure: A representative schedule of clinical administration includes administering weekly i.v. injections of a bolus of 5-FU on an outpatient basis. A typical starting dose is about 500 mg/m^2. Every four weeks the 5-FU dose is increased by 20% until dose-limiting toxicity occurs, which can be indicated by weight loss, or destruction of bone marrow cells and the loss of white blood cells.

[7] = BAU toxicity in animals; assay type: in vivo; conditions: animal data
Procedure: BAU may be administered orally at the rate of 0.5-2 g/m^2 every 4-6 hours for 3 days starting 1/2-2 hours after 5-FU administration, i.e., between 6 g/m^2 /wk and 36 g/m^2 /wk. Based on animal data BAU is non-toxic. Accordingly, it appears that the amounts of BAU which can be administered are not limited by toxic effects and, therefore, increased amounts of BAU may be administered.

[8] = test system: phosphorylase; conditions: in combination with uridine (Martin et al); cited from earlier work
[9] = test system: thymidylate synthetase; conditions: Goodman & Gilman 5th Ed.; cited from earlier work
[10] = test system: tumor; assay: 5-FU and oral uridine rescue plus BAU in tumor-bearing CD8FI mice (Table 7); assay type: in vivo, mouse; conditions: 5-FU 150 mg/kg
Procedure: (§3) Observations were recorded 6 days after the last injection.
(§4) A second trial was repeated by administering uridine 2 hours after the administration of 5-fluorouracil in a concentration of 780 mg/kg and then 2 1/2 hours later at a concentration of 1,040 mg/kg every 8 hr×5.

[11] = in vivo, cited from earlier work
[12] = test system: tumor; assay: 5-FU and oral uridine rescue in tumor-bearing CD8FI mice (Table 4); assay type: in vivo, mouse; conditions: 5-FU 150 mg/kg weekly
Procedure: as §3, §4

[13] = 5-FU 100 mg/kg i.v. weekly × 3, 6 days after last injection
[14] = 5-FU 150 mg/kg i.v. weekly × 3, 6 days after last injection
[15] = patient 1, weekly 5-FU toxic dose 720 mg/m^2
[16] = patient 2, weekly 5-FU toxic dose 600 mg/m^2
[17] = patient 3, weekly 5-FU toxic dose 600 mg/m^2
[18] = patient 4, weekly 5-FU toxic dose 864 mg/m^2
[19] = patient 5, weekly 5-FU toxic dose 864 mg/m^2
[20] = patient 6, weekly 5-FU toxic dose 864 mg/m^2
[21] = patient 7, weekly 5-FU toxic dose 600 mg/m^2
[22] = patient 8 (first), weekly 5-FU toxic dose 720 mg/m^2
[23] = patient 8 (second), weekly 5-FU toxic dose 720 mg/m^2
[24] = oral UR 600 then 800 mg/kg q. 8 hr × 5, plus oral BAU 250 mg/kg
[25] = oral UR 780 then 1,040 mg/kg q. 8 hr × 5, plus oral BAU 250 mg/kg
[26] = then oral UR 600 mg/kg at 2 hrs, then 800 mg/kg q. 8 hr × 5
[27] = then oral UR 780 mg/kg at 2 hrs, then 1,040 mg/kg q. 8 hr × 5

O=c1[nH]cc(F)c(=O)[nH]1 [5-FU, 5-fluorouracil]
Mortality [1, 13]: 0/10 | Tumor Weight [1, 13]: 688 mgs | Mortality [1, 14]: 8/10 | Tumor Weight [1, 14]: 433 mgs | MTD [2]: 100 mg/kg | Mortality ([2]; 150 mg/kg): 80% | Mortality [3]: 30% | weight loss ([4]; 5-FU 130 mg/kg/wk i.v. × 3 weeks): approximately 25% | Toxic dose ([4]; i.v., mice): 130 mg/kg/wk | lethality of 5-FU (in words) [5]: lethal dose | Nadir at toxicity, Platelets [6, 15]: 1.51e+08 mL⁻¹ | Nadir at toxicity, wbc [6, 15]: 1.6e+06 mL⁻¹ | Nadir at toxicity, Platelets [6, 16]: 1.01e+08 mL⁻¹ | Nadir at toxicity, wbc [6, 16]: 2.7e+06 mL⁻¹ | Nadir at toxicity, Platelets [6, 17]: 7.6e+07 mL⁻¹ | Nadir at toxicity, wbc [6, 17]: 1.4e+06 mL⁻¹ | Nadir at toxicity, Platelets [6, 18]: 1.1e+08 mL⁻¹ | Nadir at toxicity, wbc [6, 18]: 2.8e+06 mL⁻¹ | Nadir at toxicity, Platelets [6, 19]: 2.05e+08 mL⁻¹ | Nadir at toxicity, wbc [6, 19]: 2e+06 mL⁻¹ | Nadir at toxicity, Platelets [6, 20]: 8.4e+07 mL⁻¹ | Nadir at toxicity, wbc [6, 20]: 4.3e+06 mL⁻¹ | Nadir at toxicity, Platelets [6, 21]: 8.2e+07 mL⁻¹ | Nadir at toxicity, wbc [6, 21]: 6.7e+06 mL⁻¹ | Nadir at toxicity, Platelets [6, 22]: 9.5e+07 mL⁻¹ | Nadir at toxicity, wbc [6, 22]: 4.1e+06 mL⁻¹ | Nadir at toxicity, Platelets [6, 23]: 7.4e+07 mL⁻¹ | Nadir at toxicity, wbc [6, 23]: 3.7e+06 mL⁻¹ | Toxic dose ([6]; patient 1, WHO 1, prior chemotherapy None): 720 mg/m^2 | Toxic dose ([6]; patient 2, WHO 1, prior chemotherapy None): 600 mg/m^2 | Toxic dose ([6]; patient 3, WHO 0, prior HAI 5-FU): 600 mg/m^2 | Toxic dose ([6]; patient 4, WHO 2, prior chemotherapy None): 864 mg/m^2 | Toxic dose ([6]; patient 5, WHO 1, prior chemotherapy None): 864 mg/m^2 | Toxic dose ([6]; patient 6, WHO 1, prior HAI 5-FU): 864 mg/m^2 | Toxic dose ([6]; patient 7, WHO 1, prior TGU): 600 mg/m^2 | Toxic dose ([6]; patient 8 (first), WHO 1, prior chemotherapy None): 720 mg/m^2 | Toxic dose ([6]; patient 8 (second), WHO 0, prior FAC): 720 mg/m^2

O=c1[nH]c(=O)n(COCCO)cc1Cc1ccccc1 [BAU, 5-benzylacyclouridine]
toxicity [7]: non-toxic | effect on uridine breakdown and clearance [8]: prevents the breakdown of uridine by phosphorylase and the subsequent rapid body clearance of uridine

O=c1[nH]c(=O)n([C@H]2C[C@H](O)[C@@H](COP(=O)(O)O)O2)cc1F [F-dUMP, 5-fluoro-2'-deoxyuridine-5'-phosphate]
affinity for thymidylate synthetase [9]: unusually great affinity

O=c1ccn([C@@H]2O[C@H](CO)[C@@H](O)[C@H]2O)c(=O)[nH]1 [uridine]
Mortality [10, 24]: 0/10 | Tumor Weight [10, 24]: 475 mgs | Mortality [10, 25]: 1/10 | Tumor Weight [10, 25]: 434 mgs | side effects of intravenous uridine ([11]; iv): fever and phlebitis | side effects of oral uridine in large doses ([11]; po): irritates the gastrointestinal tract, which frequently causes severe diarrhea | catabolism of uridine [11]: quickly catabolized | plasma uridine levels after large doses of uridine [11]: millimolar or high micromolar uridine levels | Mortality [12, 26]: 4/10 | Tumor Weight [12, 26]: 242 mgs | Mortality [12, 27]: 0/10 | Tumor Weight [12, 27]: 361 mgs

From patent publication US5543401A (priority 1994, dated 1996)
